Test results: the supplement of paper PMC8671470

Columns and labels:
Experiment in all cases: cell viability (% survival relative to DMSO control, bortezomib = 0%); higher = less cytotoxic
Conditions in all cases: 72 h
KG-1 = test system: KG-1
Outline: (§1)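 Reported values are percent survival from duplicate wells, averaged. Fifteen myeloid leukaemia cell lines were treated in 384-well plates with compounds at 1, 10, 100, 1000 or 10000 nM for 72 h at 37 °C in 5% CO2. Signals from CellTiter-Glo luminescence were scaled with vehicle as 100% and a 10 µM positive control as 0%.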

HEL = test system: HEL
Outline: as §1

MV4-11 = test system: MV4-11
Outline: as §1

ML-2 = test system: ML-2
Outline: as §1

Structure (SMILES)	cell viability (KG-1; 1 nM)	cell viability (KG-1; 10 nM)	cell viability (KG-1; 100 nM)	cell viability (KG-1; 1000 nM)	cell viability (KG-1; 10000 nM)	cell viability (HEL; 1 nM)	cell viability (HEL; 10 nM)	cell viability (HEL; 100 nM)	cell viability (HEL; 1000 nM)	cell viability (HEL; 10000 nM)	cell viability (MV4-11; 1 nM)	cell viability (MV4-11; 10 nM)	cell viability (MV4-11; 100 nM)	cell viability (MV4-11; 1000 nM)	cell viability (MV4-11; 10000 nM)	cell viability (ML-2; 1 nM)	cell viability (ML-2; 10 nM)	cell viability (ML-2; 100 nM)	cell viability (ML-2; 1000 nM)	cell viability (ML-2; 10000 nM)
CCOC(=O)[C@H]1O[C@@H]1C(=O)N[C@@H](CC(C)C)C(=O)NCCC(C)C [Aloxistatin]	99.8%	104%	103%	92.9%	86.5%	111%	102%	106%	96.2%	88.2%	99.1%	104%	110%	97.8%	87.8%	99%	86.2%	87.1%	100%	88.3%
N[C@](CCCCB(O)O)(CCN1CCCCC1)C(=O)O [Arginase inhibitor 1]	97.2%	84.2%	96.6%	100%	92%	109%	96.7%	101%	90.4%	95.4%	101%	92.3%	103%	92.4%	84.9%	112%	93.9%	93.1%	93.4%	99.7%
Cc1noc2c1-c1ccccc1C(c1ccc(Cl)cc1)=N[C@H]2CC(N)=O [CPI-0610]	100%	93.9%	62.6%	21.5%	12.7%	103%	98.5%	114%	74.5%	18.5%	86.1%	84%	57.2%	3.4%	1.28%	108%	91.2%	92.5%	62.9%	33.9%
Nc1ccn([C@@H]2O[C@H](CO)[C@@H](O)[C@@H]2O)c(=O)n1 [Cytarabine]	108%	108%	63.5%	21.8%	11.3%	104%	95.2%	19.6%	-0.409%	1.24%	103%	89.2%	84.2%	34.4%	0.163%	106%	98.5%	32%	0.0645%	1.39%
CCOc1ccc(Cc2cc([C@@H]3O[C@H](CO)[C@@H](O)[C@H](O)[C@H]3O)ccc2Cl)cc1 [Dapagliflozin]	95.5%	102%	83.6%	101%	91.8%	99.9%	102%	75.6%	97.7%	122%	93.7%	106%	94.3%	94.6%	86.9%	84.8%	111%	85.1%	108%	105%
CCN(CC)CCN(Cc1ccc(-c2ccc(C(F)(F)F)cc2)cc1)C(=O)Cn1c(SCc2ccc(F)cc2)nc(=O)c2c1CCC2 [Darapladib]	104%	108%	93.6%	87.8%	0.0114%	99.5%	103%	105%	91.1%	-0.527%	88.5%	104%	87.8%	102%	-0.522%	102%	98.2%	88.9%	88.8%	-0.43%
O=C(O)C(Cl)Cl [Dichloroacetate]	108%	94.6%	91.5%	93%	103%	102%	102%	101%	97%	103%	99.6%	91.5%	83.5%	98.5%	102%	91.7%	102%	103%	95.8%	103%
O=C1Oc2ccccc2C(=O)C1CC1C(=O)Oc2ccccc2C1=O (stereo not given) [Dicumarol]	106%	105%	88.6%	101%	95.9%	109%	102%	92%	101%	107%	89.7%	111%	87%	97.5%	93.6%	93.8%	91.9%	99.2%	104%	95.4%
CC12CCC(O)CC1CCC1C2CCC2(C)C(C3=CC(=O)OC3)CCC12O (stereo not given) [Digitoxigenin]	128%	113%	87.5%	6.15%	-1.05%	102%	99.1%	103%	1.26%	-1.18%	96.8%	120%	100%	1.01%	-1.41%	97.3%	97.5%	107%	0.616%	-1.47%
C[C@H]1O[C@@H](O[C@H]2[C@@H](O)C[C@H](O[C@H]3[C@@H](O)C[C@H](O[C@H]4CC[C@@]5(C)[C@H](CC[C@@H]6[C@@H]5C[C@@H](O)[C@]5(C)[C@@H](C7=CC(=O)OC7)CC[C@]65O)C4)O[C@@H]3C)O[C@@H]2C)C[C@H](O)[C@@H]1O [Digoxin]	92%	108%	27.9%	0.685%	-0.0339%	97.3%	92.9%	49%	-0.296%	-0.0735%	110%	114%	4.71%	0.26%	0.435%	99%	109%	5.07%	-0.2%	-0.154%
O=c1c2ccccc2[se]n1-c1ccccc1 [Ebselen]	98.2%	89.7%	105%	80.3%	75.4%	102%	97.3%	106%	96.5%	81.8%	93%	92.5%	93.8%	99.7%	68%	95.6%	96.7%	96.1%	96.9%	82%
Clc1ccc(COC(Cn2ccnc2)c2ccc(Cl)cc2Cl)cc1 (stereo not given) [Econazole]	97.4%	95.3%	101%	86%	52.2%	106%	90.4%	99.1%	99%	77.3%	103%	83.4%	89.3%	57.4%	25.2%	110%	88.3%	112%	89.8%	58.1%
C#Cc1cnc(O)nc1O [Eniluracil]	103%	117%	107%	100%	114%	100%	92.2%	118%	90.1%	106%	102%	112%	104%	108%	106%	102%	120%	110%	97.3%	107%
